Measurements from US10238631B2, “Sesquiterpene derivatives and their use in inflammation or cancer treatment” (Academia Sinica, priority 2014, dated 2019).
Read-outs that look alike come from different tables or passages of the source.

How the values were obtained:
[1] = test system: B16-F10 (NRAS mutation); test: MTT cell viability assay, B16-F10 melanoma; assay type: cell-based; settings: Mus musculus, B16-F10, 24 h, read-out: IC50 on cell viability, B16-F10 (NRAS mutation)
Protocol: (§1) Normal or cancer cells (2×10^3 to 1×10^4 cells/well) were seeded in 96-well plate for overnight and treated with different compounds for 24 h to 72 h. Cells growth were determined by MTT-based colorimetric assays according to. Viability of the test cells treated with vehicle (0.5% DMSO) only was defined as 100% viable. Survival of cells after treatment with DETDs was calculated using the following formula: viable cell number (%)=OD570 (treated cell culture)/OD570 (vehicle control)×100.
(§2) Several genes are involved in melanoma development and pathology; specifically, mutation in V-raf murine sarcoma viral oncogene homolog B1 (B-RAF) occurs approximately 50-60% and in neuroblastoma RAS viral oncogene homolog (N-RAS) occurs about 30% of malignant melanomas. A spectrum of wild-type or mutated melanoma cell lines including B16-F10, MeWo, A375, A2058, HTB-68, and melanocyte were used to study anti-melanoma cell proliferation activity of parental phytocompound DET and newly synthesized DETDs.

[2] = test system: MDA-MB-231 (ER−, PR−, Her2−) human breast cancer cells; test: MTT cell viability assay, MDA-MB-231 cells; assay type: cell-based; settings: Homo sapiens, MDA-MB-231, 24 h, read-out: IC50 on cell viability, MDA-MB-231 (ER−, PR−, Her2−)
Protocol: as §1
(§3) Sixty DETDs were derived from parental compound […] and tested for anti-breast cancer cell activity.

[3] = test system: MeWo (No NRAS or BRAF mutation); test: MTT cell viability assay, MeWo melanoma; assay type: cell-based, human; settings: Homo sapiens, MeWo, 24 h
Protocol: as §1, §2

[4] = test system: TS/A (ER+, Her2−) murine mammary cancer cells; test: MTT cell viability assay, TS/A cells; assay type: cell-based; settings: Mus musculus, 24 h, read-out: IC50 on cell viability, TS/A (ER+, Her2−)
Protocol: as §1, §3

[5] = test system: HTB-68 (NRAS mutation); test: MTT cell viability assay, HTB-68 melanoma; assay type: cell-based, human; settings: Homo sapiens, 24 h
Protocol: as §1, §2

[6] = test system: LPS-induced nitric oxide (NO) production in RAW 264.7 cells; test: Nitric oxide production in LPS-stimulated macrophages (Griess); assay type: cell-based, mouse; settings: Mus musculus; LPS-stimulated RAW264.7, nitrite 24 h after LPS
Protocol: (§4) Marcophages (2×10^5 cells/well in 96-well plate) were treated with compounds for 1 h, then incubated further for 24 h with or without the presence of […] LPS in the cultural medium. Nitrite levels in cell culture medium were determined by the Griess reaction method. In parallel to the Griess assays, macrophage cell viabilities were determined using the MTT based colorimetric assay.
LPS from the outer membrane of Gram-negative bacteria can induce mRNA or protein levels of inducible nitric oxide synthase (iNOS), which catalyzes oxidative deamination of L-arginine to produce nitric oxide (NO). Once NO is predominantly produced, it interacts with superoxide anion and generates highly reactive oxidants resulting in cellular inflammation, DNA, protein and tissue damages, carcinogenesis, and antiapoptosis. We used in vitro LPS stimulated inflammation in RAW264.7 cell system to evaluate the effect of DET and its derivatives DETDs on NO production by determination of nitrite level (equivalent to NO level) in culture medium 24 h after LPS treatment.

[7] = test system: A375 (BRAF mutation); test: MTT cell viability assay, A375 melanoma; assay type: cell-based, human; settings: Homo sapiens, A-375, 24 h, read-out: IC50 on cell viability, A375 (BRAF mutation)
Protocol: as §1, §2
To investigate whether or not DETD-35 show synergism with PLX4032 against A375 melanoma cells, we performed anti-proliferation assay using MTT reagent to obtain IC50 of each compound. […] The synergistic effect was quantified by combination index (CI) analysis as stated above.

[8] = test system: RAW264.7 (normal macrophage); test: MTT cell viability assay, RAW264.7 macrophages; assay type: cell-based, mouse; settings: Mus musculus, RAW264.7, 24 h
Protocol: as §1, §4

[9] = test system: Melanocyte (Normal cells); test: MTT cell viability assay, normal melanocytes; assay type: cell-based, human; settings: Homo sapiens, Melanocyte, 24 h
Protocol: as §1, §2

[10] = test system: MCF-7 (ER+, Her2−) human breast cancer cells; test: MTT cell viability assay, MCF-7 cells; assay type: cell-based; settings: MCF7, 24 h, read-out: IC50 on cell viability, MCF-7 (ER+, Her2−)
Protocol: as §1, §3

[11] = test system: A2058 (BRAF mutation); test: MTT cell viability assay, A2058 melanoma; assay type: cell-based, human; settings: Homo sapiens, A2058, 24 h
Protocol: as §1, §2

[12] = test system: M10 normal mammary epithelial cells; test: MTT cell viability assay, M10 normal cells; assay type: cell-based, human; settings: 24 h; for IC50: Homo sapiens, Epithelial cell
Protocol: as §1, §3

| SMILES | IC50 ([1]; 24 h) | IC50 [2] | IC50 [3] | IC50 [4] | IC50 [5] | IC50 [6] | IC50 ([7]; 24 h, MTT) | IC50 [8] | IC50 [9] | IC50 [10] | IC50 [11] | IC50 on cell viability, M10 (normal) [12] | IC50 [12] | IC50 [1] | IC50 [7] |
| --- | --- | --- | --- | --- | --- | --- | --- | --- | --- | --- | --- | --- | --- | --- | --- |
| C=C1C(=O)OC2CC3=C[C@@H](C/C(C)=C/C(OC(=O)/C=C/c4ccc(OC)cc4)[C@H]12)OC3=O (stereo partly drawn) [DETD-26] | 5 µM | 4.1 µM | > 10 µM | 1.5 µM | > 10 µM | 1.7 µM | > 10 µM | > 10 µM | > 10 µM | 3.7 µM | > 10 µM | some toxicity | 4.7 µM |  |  |
| C=C1C(=O)OC2CC3=C[C@@H](C/C(C)=C/C(OC(=O)Cc4ccccc4)[C@H]12)OC3=O (stereo partly drawn) [DETD-43] |  | 6.9 µM | > 10 µM | 2.4 µM | 8.2 µM | 3.5 µM |  | > 10 µM | > 10 µM | > 7.5 µM | 8.7 µM |  | > 7.5 µM | 7.4 µM | 3.6 µM |
| C=C1C(=O)OC2CC3=C[C@@H](C/C(C)=C/C(OC(=O)/C=C/CC)[C@H]12)OC3=O (stereo partly drawn) [DETD-25] | > 10 µM | > 7.5 µM | > 10 µM | 4 µM | > 10 µM | 4.9 µM | > 10 µM | > 10 µM | > 10 µM | 5.8 µM | > 10 µM |  | > 7.5 µM |  |  |
| C=C1C(=O)OC2CC3=C[C@@H](C/C(C)=C/C(OC(=O)C4CCCC4)[C@H]12)OC3=O (stereo partly drawn) [DETD-37] | 3.8 µM | 6.7 µM | > 10 µM | 3 µM | > 10 µM | 2 µM | > 10 µM | > 10 µM | > 10 µM | 6.2 µM | > 10 µM |  | > 7.5 µM |  |  |
| C=C1C(=O)OC2CC3=C[C@@H](C/C(C)=C/C(OC(=O)C(C)CCC)[C@H]12)OC3=O (stereo partly drawn) [DETD-20] | 9 µM | 5.8 µM | > 10 µM | 2.2 µM | > 10 µM | 4.2 µM | > 10 µM | > 10 µM | > 10 µM | 3.5 µM | > 10 µM |  | > 7.5 µM |  |  |
| C=C1C(=O)OC2CC3=C[C@@H](C/C(C)=C/C(OC(=O)CC(C)(CC)OC(C)=O)[C@H]12)OC3=O (stereo partly drawn) [DETD-11] |  | > 7.5 µM | > 10 µM | 2.9 µM | > 10 µM | 2.3 µM |  | > 10 µM | > 10 µM | 4.2 µM | > 10 µM |  | > 7.5 µM | > 10 µM | > 10 µM |
| C=C1C(=O)OC2CC3=C[C@@H](C/C(C)=C/[C@H](OC(=O)Cc4cccc5ccccc45)[C@H]12)OC3=O (stereo partly drawn) [DETD-62] | 9.3 µM | 7.4 µM | > 10 µM | > 7.5 µM | 9 µM | > 10 µM | 5 µM | > 10 µM | > 10 µM | > 7.5 µM | 8.7 µM |  | > 7.5 µM |  |  |
| C=C1C(=O)OC2CC3=C[C@@H](C/C(C)=C/C(OC(=O)C(C)CC)[C@H]12)OC3=O (stereo partly drawn) [DETD-13] | 7.1 µM | 7.5 µM | > 10 µM | 1.9 µM | > 10 µM | 2 µM | > 10 µM | > 10 µM | > 10 µM | 3.7 µM | > 10 µM |  | > 7.5 µM |  |  |
| C=C1C(=O)OC2CC3=C[C@@H](C/C(C)=C/C(OC(=O)/C=C/c4ccc(C)cc4)[C@H]12)OC3=O (stereo partly drawn) [DETD-27] | 4.8 µM | 3.6 µM | > 10 µM | 2.4 µM | > 10 µM | 1.9 µM | > 10 µM | > 10 µM | > 10 µM | 3.7 µM | > 10 µM |  | > 7.5 µM |  |  |
| C=C1C(=O)OC2CC3=C[C@@H](C/C(C)=C/C(OC(=O)Cc4cccc5cccnc45)[C@H]12)OC3=O (stereo partly drawn) [DETD-52] | > 10 µM | > 15 µM | > 10 µM | > 7.5 µM | > 10 µM | > 10 µM | > 10 µM | > 10 µM | > 10 µM | > 7.5 µM | > 10 µM |  | > 7.5 µM |  |  |
| C=C(CC)C(=O)OC1/C=C(\C)C[C@@H]2C=C(CC3OC(=O)C(=C)[C@@H]13)C(=O)O2 (stereo partly drawn) [DETD-19] | 7.8 µM | 4.6 µM | > 10 µM | 1.7 µM | > 10 µM | 3.8 µM | > 10 µM | > 10 µM | > 10 µM | 3.5 µM | > 10 µM |  | > 7.5 µM |  |  |
| C=C1C(=O)OC2CC3=C[C@@H](C/C(C)=C/C(OC(=O)C(Cl)Cl)[C@H]12)OC3=O (stereo partly drawn) [DETD-9] | > 10 µM | > 7.5 µM | > 10 µM | > 7.5 µM | > 10 µM | > 10 µM | > 10 µM | > 10 µM | > 10 µM | > 7.5 µM | > 10 µM |  | > 7.5 µM |  |  |
| C=C1C(=O)OC2CC3=C[C@@H](C/C(C)=C/C(OC(=O)CC(C)CC)[C@H]12)OC3=O (stereo partly drawn) [DETD-18] | 8.4 µM | 5.5 µM | > 10 µM | 3.3 µM | > 10 µM | 3.4 µM | > 10 µM | > 10 µM | > 10 µM | 2.6 µM | > 10 µM |  | > 7.5 µM |  |  |
| C=C1C(=O)OC2CC3=C[C@@H](C/C(C)=C/C(OC(=O)/C=C/c4cccs4)[C@H]12)OC3=O (stereo partly drawn) [DETD-42] |  | 6 µM | > 10 µM | 2.7 µM | > 10 µM | 2.9 µM |  | > 10 µM | > 10 µM | 4.5 µM | > 10 µM |  | > 7.5 µM | 5.5 µM | > 10 µM |
| C=C1C(=O)OC2CC3=C[C@@H](C/C(C)=C/C(OC(=O)/C=C/c4cccc(C(F)(F)F)c4)[C@H]12)OC3=O (stereo partly drawn) [DETD-48] | > 10 µM | 8.2 µM | > 10 µM | > 7.5 µM | > 10 µM | > 10 µM | 6.9 µM | > 10 µM | > 10 µM | > 7.5 µM | > 10 µM |  | > 7.5 µM |  |  |
| C=C1C(=O)OC2CC3=C[C@@H](C/C(C)=C/C(OC(=O)C(C)CCCC)[C@H]12)OC3=O (stereo partly drawn) [DETD-22] | 6.8 µM | 4.3 µM | > 10 µM | 1.8 µM | > 10 µM | 3.5 µM | > 10 µM | > 10 µM | > 10 µM | 2.5 µM | > 10 µM |  | 4.7 µM |  |  |
| C=C1C(=O)OC2CC3=C[C@@H](C/C(C)=C/C(OC(=O)C4CCCCC4)[C@H]12)OC3=O (stereo partly drawn) [DETD-38] | 3.9 µM | 5.2 µM | > 10 µM | 2.6 µM | 9.5 µM | 1.7 µM | 5.1 µM | > 10 µM | > 10 µM | 4.6 µM |  |  | > 7.5 µM |  |  |
